Test results published in patent US9258995B2, “Organ cold storage composition and methods of use” (BOARD OF TRUSTEES OF THE UNIVERSITY OF ARKANSAS, priority 2009, dated 2016).

Columns and labels:
[1] = tested on: NRK cells; assay: MitoSOX Red mitochondrial superoxide generation, cold storage in vitro model; format: cell-based, rat; settings: 4 h CS at 4° C. in UW, 1 μM
Description: Normal rat kidney proximal tubular cells (NRK-52E; American Type Culture Collection, Manassas, Va.) were maintained in six-well 100 or 150-mm, or 150-mm plates in a humidified incubator gassed with 5% CO2 and 95% air at 37° C. in DMEM (Invitrogen, Carlsbad, Calif.) containing 5% fetal calf serum (FCS). Cells were grown to 60% confluence and divided into four treatment groups: 1) untreated (Untx), 2) CS, 3) CS+MitoQ, and 4) CS+DecylTPP. Untreated cells remained at 37° C. in DMEM containing 5% FCS (group 1). […]
MitoSOX Red (Invitrogen) was used to measure mitochondrial superoxide generation during CS. […] Fluorescence was visualized using an Eclipse E800 microscope (Nikon, Melville, N.Y.) with a rhodamine filter using a water immersion objective (60×). Fluorescent images of NRK cells were captured with equal exposure times and quantified by averaging the mean intensity fluorescence of five random cells in three different fields using Nikon N is Elements software. In separate experiments, cells were grown on coverslips, preloaded with MitoSOX Red before treatment (groups 1-4), and evaluated for mitochondrial superoxide generation using a Hitachi F-2500 spectrofluorometer (Hitachi, Tokyo, Japan) equipped with a coverslip holder using two different excitation wavelengths: 396 and 510 nm with the emission measured at 580 nm as previously described. […]

[2] = tested on: NRK cells; assay: Nitrotyrosine immunocytochemistry during CS; format: cell-based, rat; settings: 4 h CS, 1 μM
Description: (§1) Normal rat kidney proximal tubular cells (NRK-52E; American Type Culture Collection, Manassas, Va.) were maintained in six-well 100 or 150-mm, or 150-mm plates in a humidified incubator gassed with 5% CO2 and 95% air at 37° C. in DMEM (Invitrogen, Carlsbad, Calif.) containing 5% fetal calf serum (FCS). Cells were grown to 60% confluence and divided into four treatment groups: 1) untreated (Untx), 2) CS, 3) CS+MitoQ, and 4) CS+DecylTPP. Untreated cells remained at 37° C. in DMEM containing 5% FCS (group 1). CS was initiated by washing cells with cold PBS (Invitrogen) twice and storing them in UW/Viaspan solution alone (4 h at 4° C.) (group 2), CS+MitoQ (1 μM) (group 3), or CS+DecylTPP (1 μM) (group 4). In separate experiments, cells were exposed to CS plus RW by replacing UW solution alone or UW solution containing MitoQ or DecylTPP with DMEM containing 5% FCS overnight (18 h at 37° C.).
NRK cells (groups 1-4) were assessed for nitrotyrosine formation as previously described. […] Nitrotyrosine staining was evaluated and captured with equal exposure times using a Nikon Eclipse 800 microscope (40×oil). Images were quantified by averaging the mean intensity fluorescence of five random cells in three different fields using Nikon N is Elements software. Renal tissue sections were assessed for the presence of nitrotyrosine protein adducts by nitrotyrosine immunohistochemistry. […]

[3] = tested on: mitochondrial respiratory complex II; assay: Mitochondrial respiratory complex activity, NRK cell mitochondria after CS; format: cell-based, rat; settings: NRK cells, 4-h CS, 1 μM
Description: as §1
(§2) NRK cell and rat kidney mitochondria were isolated by centrifugation on a sucrose density gradient. The activity of mitochondrial respiratory complexes I, II, III, or IV were assayed spectrophotometrically using 100 μg of mitochondrial protein at 30° C. as previously described.

[4] = tested on: mitochondrial respiratory complex I; assay: as above; format: cell-based, rat; settings: NRK cells, 4-h CS, 1 μM
Description: as §1, §2

[5] = tested on: mitochondrial respiratory complex II; assay: Mitochondrial respiratory complex activity, rat kidney mitochondria after CS; settings: rat kidneys, 4-h CS, 100 μM
Description: (§3) All animals were treated according to the National Institutes of Health Guide for the Care and Use of Laboratory Animals and the University of Arkansas for Medical Sciences Institutional Animal Care and Use Committee guidelines. Male Fischer 344 inbred rats (Charles Rivers Laboratories, Inc., Wilmington, Mass.) weighing between 250 and 300 g were anesthetized with ethrane, followed by shaving and prepping with betadine. […] Bulldog clamps were placed on the aorta and vena cava (proximal and distal to the renal vessels) to prevent blood flow to the kidneys. A 22-gauge surgical needle was used to puncture the rat's aorta to flush the renal grafts with saline (10 ml per kidney) using a small catheter. Once the kidneys started to turn light brown (perfusion), another vent was formed in the vena cava to allow blood flow from the kidneys. Once both kidneys were completely flushed, the right kidney was recovered and served as a control (group 1), and the left kidney was exposed to CS alone for 4 h at 4° C. (group 2). In additional experiments, kidneys were flushed with saline through the aorta using a small catheter followed by flushing the right kidney with saline containing MitoQ (100 μM) and the left kidney with saline containing DecylTPP (100 μM) (10 ml per kidney). Tissues were recovered and stored in CS+MitoQ (100 μM; right kidney) or CS+DecylTPP (100 μM; left kidney) for 4 h at 4° C. (groups 3 and 4, respectively). A thin middle section from all of the kidneys were cut and immediately fixed in 10% formalin before being embedded in paraffin for sectioning (4 μm) and histological evaluation. The remaining portion of the kidneys were quickly frozen in liquid nitrogen and stored in −80° C. until needed for biochemistry analyses.
as §2

[6] = tested on: mitochondrial respiratory complex I; assay: as above; settings: rat kidneys, 4-h CS, 100 μM
Description: as §3, §2

[7] = tested on: porcine renal mitochondrial respiratory complex II/III; assay: Mitochondrial respiratory complex activity, porcine ex vivo renal model; parameters: protection of porcine complex II/III: dose or concentration left out as unconfirmed
Description: FIG. 15 depicts graphs showing activities or (A) porcine renal mitochondrial respiratory complex I, (B) activities or porcine renal mitochondrial respiratory complex II/III, and (C) activities or porcine renal mitochondrial respiratory complex IV, after MitoQ treatment. MitoQ ([…]) protected porcine complex II/III following 24 hr cold preservation. Values are expressed as mean SEM (n=4).
Mitochondrial respiratory complex activity was also evaluated in the porcine ex vivo renal model at 24-h and 48-h CS. […] Protection of Complex II/III by MitoQ (100 μM) was significant following 24-h cold preservation.

`COC1=C(OC)C(=O)C(CCCCCCCCCC[P+](c2ccccc2)(c2ccccc2)c2ccccc2)=C(C)C1=O` [MitoQ, mitoquinone] was tested, and the “CS-induced mitochondrial superoxide generation (MitoSOX Red)” value [1] was “significant protection”, the “attenuation of nitrotyrosine formation” value [2] was roughly 2 fold and the “complex II inactivation” value [3] was “completely prevented”. For the same molecule, the “complex I inactivation” value [4] was “completely prevented”, the “complex II inactivation” value [5] was “protected” and the “complex I inactivation” value [6] was “protected”. The “protection of Complex II/III activity, 24-h versus 48-h CS” value ([7]; porcine ex vivo renal model) was “at 24-h better than at 48-h”, the “Protection of Complex II/III” value ([7]; porcine kidneys, 24-h cold preservation, MitoQ (100 μM)) was “significant” and the “protection of porcine complex II/III” value ([7]; porcine kidneys, 24 hr cold preservation) was “protected”.
